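Where inhibition never reached the appropriate level, the endpoint shown equals the highest concentration tested. Otherwise, values were interpolated linearly from a five-concentration, 48-hour dose response in 96-well plates. Abbreviation: GI50, concentration required for 50% inhibition of growth.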 Calls of active or inactive are those of the source. No stated cut-off is given here; in the data, active = GI50 up to about 1.1 µM and inactive = higher.
What was measured:
Assay in all cases: DTP human tumour cell line panel, 48 h
NCI/ADR-RES = system: NCI/ADR-RES
OVCAR-5 = system: OVCAR-5
SW-620 = system: SW-620
CAKI-1 = system: CAKI-1
NCI-H23 = system: NCI-H23
HCT-15 = system: HCT-15
SNB-19 = system: SNB-19
RXF 393 = system: RXF 393
UACC-62 = system: UACC-62
MDA-MB-435 = system: MDA-MB-435
NCI-H522 = system: NCI-H522
NCI-H226 = system: NCI-H226
OVCAR-8 = system: OVCAR-8
UO-31 = system: UO-31
MOLT-4 = system: MOLT-4
SNB-75 = system: SNB-75
SK-MEL-5 = system: SK-MEL-5
COLO 205 = system: COLO 205
Malme-3M = system: Malme-3M
ACHN = system: ACHN
MDA-MB-231 = system: MDA-MB-231
BT-549 = system: BT-549
HCC 2998 = system: HCC 2998
786-0 = system: 786-0
NCI-H460 = system: NCI-H460
SF-268 = system: SF-268
RPMI-8226 = system: RPMI-8226
Hs-578T = system: Hs-578T
EKVX = system: EKVX
HCT-116 = system: HCT-116
SK-MEL-2 = system: SK-MEL-2
SK-MEL-28 = system: SK-MEL-28
IGROV-1 = system: IGROV-1
SF-295 = system: SF-295
OVCAR-3 = system: OVCAR-3
SN12C = system: SN12C
A549 = system: A549
M14 = system: M14
HOP-62 = system: HOP-62
SK-OV-3 = system: SK-OV-3
OVCAR-4 = system: OVCAR-4
U-251 = system: U-251
SR = system: SR
A498 = system: A498
HL-60 = system: HL-60
T47D = system: T47D
CCRF-CEM = system: CCRF-CEM
MDA-N = system: MDA-N
K562 = system: K562
DU-145 = system: DU-145
PC-3 = system: PC-3
LOX IMVI = system: LOX IMVI
HT-29 = system: HT-29
MCF7 = system: MCF7
KM12 = system: KM12
SF-539 = system: SF-539
HOP-92 = system: HOP-92
TK-10 = system: TK-10
UACC-257 = system: UACC-257

C=C(CCOC)CCC1CCCCC(=C)C1=O (stereo not drawn)
GI50 (NCI/ADR-RES): > 100 µM (inactive)
GI50 (OVCAR-5): > 100 µM (inactive)
GI50 (SW-620): > 100 µM (inactive)
GI50 (CAKI-1): > 100 µM (inactive)
GI50 (NCI-H23): > 100 µM (inactive)
GI50 (HCT-15): > 100 µM
GI50 (SNB-19): > 100 µM (inactive)
GI50 (RXF 393): > 100 µM (inactive)
GI50 (UACC-62): > 100 µM (inactive)
GI50 (MDA-MB-435): > 100 µM (inactive)
GI50 (NCI-H522): > 100 µM (inactive)
GI50 (NCI-H226): > 100 µM (inactive)
GI50 (OVCAR-8): > 100 µM (inactive)
GI50 (UO-31): > 100 µM (inactive)
GI50 (MOLT-4): > 100 µM (inactive)
GI50 (SNB-75): > 100 µM (inactive)
GI50 (SK-MEL-5): > 100 µM (inactive)
GI50 (COLO 205): > 100 µM (inactive)
GI50 (Malme-3M): > 100 µM (inactive)
GI50 (ACHN): > 100 µM (inactive)
GI50 (MDA-MB-231): > 100 µM (inactive)
GI50 (BT-549): > 100 µM (inactive)
GI50 (HCC 2998): > 100 µM (inactive)
GI50 (786-0): > 100 µM (inactive)
GI50 (NCI-H460): > 100 µM (inactive)
GI50 (SF-268): > 100 µM (inactive)
GI50 (RPMI-8226): > 100 µM (inactive)
GI50 (Hs-578T): > 100 µM (inactive)
GI50 (EKVX): > 100 µM (inactive)
GI50 (HCT-116): > 100 µM (inactive)
GI50 (SK-MEL-2): > 100 µM (inactive)
GI50 (SK-MEL-28): > 100 µM (inactive)
GI50 (IGROV-1): > 100 µM (inactive)
GI50 (SF-295): > 100 µM (inactive)
GI50 (OVCAR-3): > 100 µM (inactive)
GI50 (SN12C): > 100 µM (inactive)
GI50 (A549): > 100 µM (inactive)
GI50 (M14): > 100 µM (inactive)
GI50 (HOP-62): > 100 µM (inactive)
GI50 (SK-OV-3): > 100 µM (inactive)
GI50 (OVCAR-4): > 100 µM (inactive)
GI50 (U-251): > 100 µM (inactive)
GI50 (SR): > 100 µM (inactive)
GI50 (A498): > 100 µM (inactive)
GI50 (HL-60): > 100 µM (inactive)
GI50 (T47D): > 100 µM (inactive)
GI50 (CCRF-CEM): > 100 µM (inactive)
GI50 (MDA-N): > 100 µM (inactive)
GI50 (K562): > 100 µM (inactive)
GI50 (DU-145): > 100 µM (inactive)
GI50 (PC-3): > 100 µM (inactive)
GI50 (LOX IMVI): > 100 µM (inactive)
GI50 (HT-29): > 100 µM (inactive)
GI50 (MCF7): > 100 µM (inactive)
GI50 (KM12): 63.1 µM (inactive)

OCCNc1nc2c(N3CCCC3)nc(N3CCNCC3)nc2nc1NCc1ccccc1
GI50 (NCI/ADR-RES): 38.5 µM (inactive)
GI50 (OVCAR-5): 12.1 µM (inactive)
GI50 (SW-620): 19.1 µM (inactive)
GI50 (CAKI-1): 16.2 µM (inactive)
GI50 (NCI-H23): 18.2 µM (inactive)
GI50 (HCT-15): 16.4 µM
GI50 (SNB-19): 15.8 µM (inactive)
GI50 (SF-539): 16.3 µM (inactive)
GI50 (RXF 393): 11.3 µM (inactive)
GI50 (UACC-62): 17.3 µM (inactive)
GI50 (MDA-MB-435): 12.4 µM (inactive)
GI50 (NCI-H522): 12.7 µM (inactive)
GI50 (NCI-H226): 16.3 µM (inactive)
GI50 (OVCAR-8): 15.9 µM (inactive)
GI50 (UO-31): 15.3 µM (inactive)
GI50 (MOLT-4): 16 µM (inactive)
GI50 (SNB-75): 13.3 µM (inactive)
GI50 (SK-MEL-5): 12.6 µM (inactive)
GI50 (COLO 205): 11.7 µM (inactive)
GI50 (Malme-3M): 19.6 µM (inactive)
GI50 (ACHN): 15.5 µM (inactive)
GI50 (MDA-MB-231): 15.7 µM (inactive)
GI50 (BT-549): 16.4 µM (inactive)
GI50 (HCC 2998): 15.2 µM (inactive)
GI50 (786-0): 14.8 µM (inactive)
GI50 (NCI-H460): 15.5 µM (inactive)
GI50 (SF-268): 16.9 µM (inactive)
GI50 (RPMI-8226): 16.7 µM (inactive)
GI50 (Hs-578T): 20.3 µM (inactive)
GI50 (EKVX): 13.6 µM (inactive)
GI50 (HCT-116): 10.1 µM (inactive)
GI50 (SK-MEL-2): 15 µM (inactive)
GI50 (SK-MEL-28): 17.5 µM (inactive)
GI50 (IGROV-1): 11.9 µM (inactive)
GI50 (SF-295): 17.6 µM (inactive)
GI50 (OVCAR-3): 4.92 µM (inactive)
GI50 (SN12C): 16.7 µM (inactive)
GI50 (HOP-92): 7.8 µM (inactive)
GI50 (A549): 17 µM (inactive)
GI50 (M14): 15.7 µM (inactive)
GI50 (HOP-62): 2.63 µM (inactive)
GI50 (SK-OV-3): 16.8 µM (inactive)
GI50 (OVCAR-4): 17.3 µM (inactive)
GI50 (U-251): 11.1 µM (inactive)
GI50 (SR): 13.3 µM (inactive)
GI50 (TK-10): 15 µM (inactive)
GI50 (HL-60): 15.5 µM (inactive)
GI50 (T47D): 12.5 µM (inactive)
GI50 (UACC-257): 17.3 µM (inactive)
GI50 (CCRF-CEM): 10.8 µM (inactive)
GI50 (MDA-N): 11.9 µM (inactive)
GI50 (K562): 14 µM (inactive)
GI50 (DU-145): 11.3 µM (inactive)
GI50 (PC-3): 16.9 µM (inactive)
GI50 (LOX IMVI): 14.7 µM (inactive)
GI50 (HT-29): 8.15 µM (inactive)
GI50 (MCF7): 14.3 µM (inactive)
GI50 (KM12): 11.9 µM (inactive)
